Reference: PubChem BioAssay AID2060607 (Molecular Pharmacology Branch, DTP, NCI, 2025)

Test system: 876862-298-R-J1-PDC complex spheroids, viability % test/control
Experiment: Anticancer human tumor 876862-298-R-J1-PDC patient-derived endometrial carcinoma cell line growth inhibition [CLK]
Details: for IC50: curve of first compound; for viability, T/C: stronger effect = lower value
Summary of the method: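 Patient-derived tumor cells grown as complex spheroids with HUVEC endothelial cells and mesenchymal stem cells, treated with drug combinations. Concentrations descend in half-log steps from near clinical Cmax, or from 10 microM if Cmax unknown.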
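Also: spheroids exposed to drugs for 7 days before readout.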
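For viability, T/C in this document: 100% = DMSO vehicle control wells.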

## CC(C)CC(NC(=O)C(Cc1ccccc1)NC(=O)c1cnccn1)B(O)O (centres undefined) + CN1CCN(c2cc(C(=O)Nc3cc4cc(-c5cnn(C)c5)ccc4cn3)ccn2)CC1
Second compound 0.0316 µM
  IC50: 1.77 nM
Second compound 0.1 µM
  IC50: 0.97 nM
Second compound 0.316 µM
  IC50: < 0.949 nM
Second compound 1 µM
  IC50: < 0.949 nM
Second compound 3.16 µM
  IC50: < 0.949 nM
Second compound 10 µM
  IC50: < 0.949 nM
Second compound 0.0316 µM, first compound 0.000949 µM
  viability, T/C: 92.9%
Second compound 0.0316 µM, first compound 0.003 µM
  viability, T/C: 13.8%
Second compound 0.0316 µM, first compound 0.00949 µM
  viability, T/C: 1.49%
Second compound 0.0316 µM, first compound 0.03 µM
  viability, T/C: 0.54%
Second compound 0.0316 µM, first compound 0.0949 µM
  viability, T/C: 0.87%
Second compound 0.0316 µM, first compound 0.3 µM
  viability, T/C: 0.26%
Second compound 0.1 µM, first compound 0.000949 µM
  viability, T/C: 50.9%
Second compound 0.1 µM, first compound 0.003 µM
  viability, T/C: 9.76%
Second compound 0.1 µM, first compound 0.00949 µM
  viability, T/C: 0.72%
Second compound 0.1 µM, first compound 0.03 µM
  viability, T/C: 0.44%
Second compound 0.1 µM, first compound 0.0949 µM
  viability, T/C: 0.43%
Second compound 0.1 µM, first compound 0.3 µM
  viability, T/C: 0.26%
Second compound 0.316 µM, first compound 0.000949 µM
  viability, T/C: 2.77%
Second compound 0.316 µM, first compound 0.003 µM
  viability, T/C: 0.46%
Second compound 0.316 µM, first compound 0.00949 µM
  viability, T/C: 1.45%
Second compound 0.316 µM, first compound 0.03 µM
  viability, T/C: 0.39%
Second compound 0.316 µM, first compound 0.0949 µM
  viability, T/C: 0.5%
Second compound 0.316 µM, first compound 0.3 µM
  viability, T/C: 0.26%
Second compound 1 µM, first compound 0.000949 µM
  viability, T/C: 0.6%
Second compound 1 µM, first compound 0.003 µM
  viability, T/C: 0.27%
Second compound 1 µM, first compound 0.00949 µM
  viability, T/C: 0.45%
Second compound 1 µM, first compound 0.03 µM
  viability, T/C: 0.53%
Second compound 1 µM, first compound 0.0949 µM
  viability, T/C: 0.45%
Second compound 1 µM, first compound 0.3 µM
  viability, T/C: 0.57%
Second compound 3.16 µM, first compound 0.000949 µM
  viability, T/C: 1.3%
Second compound 3.16 µM, first compound 0.003 µM
  viability, T/C: 0.5%
Second compound 3.16 µM, first compound 0.00949 µM
  viability, T/C: 0.68%
Second compound 3.16 µM, first compound 0.03 µM
  viability, T/C: 0.95%
Second compound 3.16 µM, first compound 0.0949 µM
  viability, T/C: 0.69%
Second compound 3.16 µM, first compound 0.3 µM
  viability, T/C: 0.43%
Second compound 10 µM, first compound 0.000949 µM
  viability, T/C: 0.67%
Second compound 10 µM, first compound 0.003 µM
  viability, T/C: 0.32%
Second compound 10 µM, first compound 0.00949 µM
  viability, T/C: 1.9%
Second compound 10 µM, first compound 0.03 µM
  viability, T/C: 0.44%
Second compound 10 µM, first compound 0.0949 µM
  viability, T/C: 0.42%
Second compound 10 µM, first compound 0.3 µM
  viability, T/C: 0.27%

## COc1c(OCCCN2CCOCC2)ccc2c3n(c(=NC(=O)c4cnc(N)nc4)nc12)CCN3 + CN1CCN(c2cc(C(=O)Nc3cc4cc(-c5cnn(C)c5)ccc4cn3)ccn2)CC1
Second compound 0.0316 µM
  IC50: 48.3 nM
Second compound 0.1 µM
  IC50: < 3.16 nM
Second compound 0.316 µM
  IC50: < 3.16 nM
Second compound 1 µM
  IC50: < 3.16 nM
Second compound 3.16 µM
  IC50: < 3.16 nM
Second compound 10 µM
  IC50: < 3.16 nM
Second compound 0.0316 µM, first compound 0.00316 µM
  viability, T/C: 90.4%
Second compound 0.0316 µM, first compound 0.01 µM
  viability, T/C: 74.4%
Second compound 0.0316 µM, first compound 0.0316 µM
  viability, T/C: 65.2%
Second compound 0.0316 µM, first compound 0.1 µM
  viability, T/C: 26.8%
Second compound 0.0316 µM, first compound 0.316 µM
  viability, T/C: 16.7%
Second compound 0.0316 µM, first compound 1 µM
  viability, T/C: 17.8%
Second compound 0.1 µM, first compound 0.00316 µM
  viability, T/C: 47.1%
Second compound 0.1 µM, first compound 0.01 µM
  viability, T/C: 40%
Second compound 0.1 µM, first compound 0.0316 µM
  viability, T/C: 28.3%
Second compound 0.1 µM, first compound 0.1 µM
  viability, T/C: 14.6%
Second compound 0.1 µM, first compound 0.316 µM
  viability, T/C: 11.1%
Second compound 0.1 µM, first compound 1 µM
  viability, T/C: 13.2%
Second compound 0.316 µM, first compound 0.00316 µM
  viability, T/C: 4.86%
Second compound 0.316 µM, first compound 0.01 µM
  viability, T/C: 2.92%
Second compound 0.316 µM, first compound 0.0316 µM
  viability, T/C: 3.87%
Second compound 0.316 µM, first compound 0.1 µM
  viability, T/C: 3.03%
Second compound 0.316 µM, first compound 0.316 µM
  viability, T/C: 3.72%
Second compound 0.316 µM, first compound 1 µM
  viability, T/C: 2.59%
Second compound 1 µM, first compound 0.00316 µM
  viability, T/C: 0.47%
Second compound 1 µM, first compound 0.01 µM
  viability, T/C: 1.56%
Second compound 1 µM, first compound 0.0316 µM
  viability, T/C: 0.48%
Second compound 1 µM, first compound 0.1 µM
  viability, T/C: 0.16%
Second compound 1 µM, first compound 0.316 µM
  viability, T/C: 1.64%
Second compound 1 µM, first compound 1 µM
  viability, T/C: 1.15%
Second compound 3.16 µM, first compound 0.00316 µM
  viability, T/C: 1.02%
Second compound 3.16 µM, first compound 0.01 µM
  viability, T/C: 1.06%
Second compound 3.16 µM, first compound 0.0316 µM
  viability, T/C: 1.3%
Second compound 3.16 µM, first compound 0.1 µM
  viability, T/C: 1.09%
Second compound 3.16 µM, first compound 0.316 µM
  viability, T/C: 1.55%
Second compound 3.16 µM, first compound 1 µM
  viability, T/C: 0.99%
Second compound 10 µM, first compound 0.00316 µM
  viability, T/C: 0.74%
Second compound 10 µM, first compound 0.01 µM
  viability, T/C: 1.11%
Second compound 10 µM, first compound 0.0316 µM
  viability, T/C: 0.45%
Second compound 10 µM, first compound 0.1 µM
  viability, T/C: 1.75%
Second compound 10 µM, first compound 0.316 µM
  viability, T/C: 2.12%
Second compound 10 µM, first compound 1 µM
  viability, T/C: 1.84%
